{"source": "patent US5399360A", "about": "“Pharmaceutical compositions” (Sandoz Pharmaceuticals Corp., priority 1986, dated 1995)", "origin": "cited, not measured here", "conditions": "described in German Patent 2,111,071"}
{"smiles": "CN1CCC(=C2c3ccccc3CC(=O)c3sccc32)CC1", "note": "[Ketotifen, 4-(1-methyl-4-piperidylidene)-4H-benzo[4,5]cyclohepta[1,2-b]thiophen-10(9H)-one]", "values": [{"measurement": "pharmacological properties", "value": "anti-anaphylacticand anti-histamine properties"}]}
